Results reported in patent publication US20240041042A1, “1-(PYRIDYL)-5-AZINYLPYRAZOLE DERIVATIVES, AND THEIR USE FOR CONTROL OF UNDESIRED PLANT GROWTH” (Bayer Aktiengesellschaft, priority 2020, published 2024).
Where two headings read alike, the source gives them in different places. Values belong to the compound of their own block, whether it stands above or below them.

Experiments:
Assay type in all cases: in vivo
[1] = tested on: Digitaria sanguinalis (DIGSA); test: Pre-emergence herbicidal action against DIGSA; conditions: dosage 320 g/ha
In short: (§1)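 Herbicide applied to soil before seedling emergence, at 600 l/ha spray volume with 0.5% additive and rates up to 320 g/ha. Evaluation: visual percentage effect, about 3 weeks later, greenhouse-grown pots compared with untreated ones.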

[2] = tested on: Alopecurus myosuroides (ALOMY); test: Post-emergence herbicidal action against ALOMY; conditions: 80 g/ha, visual rating about 3 weeks after treatment vs untreated controls (100% = plants have died, 0% = like control plants)
In short: (§2)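 Greenhouse plants sprayed at the one-leaf stage, 2–3 weeks after sowing, with WP or EC formulations plus 0.5% additive at 600 l/ha water. Activity rated visually after about 3 weeks versus untreated controls (100% = dead, 0% = like control), at 320 g/ha or lower.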

Setaria viridis (SETVI) = test: Post-emergence herbicidal action against SETVI; conditions: dosage 80 g/ha
In short: as §2

Glycine max (GLXMA) = test: Post-emergence crop plant compatibility, GLXMA; conditions: post-emergence, effect in comparison to untreated controls
Protocol: Seeds of monocotyledonous and dicotyledonous weeds and crop plants are placed in sandy loam in plastic or organic planting pots, covered with soil and cultivated in a greenhouse under controlled growth conditions. 2 to 3 weeks after sowing, the test plants are treated at the one-leaf stage. The compounds of the invention, formulated in the form of wettable powders (WP) or as emulsion concentrates (EC), are then sprayed onto the green parts of the plants as aqueous suspension or emulsion with addition of 0.5% additive at a water application rate of 600 l/ha (converted). After the test plants have been kept in the greenhouse under optimum growth conditions for about 3 weeks, the activity of the preparations is rated visually in comparison to untreated controls. For example, 100% activity=the plants have died, 0% activity=like control plants.
The observed effects on selected crop plants are reported here in comparison to the untreated controls (values in %). The appendices “a”, “b” and “c” give differentiation by dosage used with otherwise the same crop plants tested.

Viola tricolor (VIOTR) [3] = test: Pre-emergence herbicidal action against VIOTR
In short: as §1

[4] = tested on: Alopecurus myosuroides (ALOMY); test: Pre-emergence herbicidal action against ALOMY; conditions: 320 g/ha; scored visually after about 3 weeks; 100% = plants have died
In short: as §1

Oryza sativa (ORYSA) [5] = conditions: crop plant compatibility
In short: (§3)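 Effects were read visually as % versus untreated controls (0% = no effect, 100% = death) about 3 weeks post-treatment. Application was a post-emergence spray at the one-leaf stage of WP/EC formulations with 0.5% additive at 600 l/ha. Different dosages are denoted a, b and c.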

[6] = tested on: Triticum aestivum (TRZAS); conditions: crop plant compatibility, effect vs untreated controls
In short: as §3

Zea mays (ZEAMX) [7] = conditions: for Post-emergence action against ZEAMX in % (crop plant compatibility): 20 g/ha, effect in comparison to untreated controls; for Post-emergence action against ZEAMX in %: crop plant compatibility, 80 g/ha, effect vs untreated controls
In short: as §3

Oryza sativa (ORYSA) [8] = conditions: pre-emergence, crop plant compatibility, in comparison to untreated controls
In short: (§4)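 Scoring: visual, % of untreated control, about 3 weeks after a pre-emergence application to the soil surface. Application used WP or EC formulations diluted in water with 0.5% additive at 600 l/ha; dosage levels are marked by suffixes a, b and c.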

[9] = tested on: Triticum aestivum (TRZAS); conditions: pre-emergence, 80 g/ha, crop plant compatibility, in comparison to untreated controls
In short: as §4

Zea mays (ZEAMX) [10] = conditions: pre-emergence, crop plant compatibility, in comparison to untreated controls
In short: as §4

[11] = tested on: Verconica persica (VERPE); test: Post-emergence herbicidal action against VERPE; conditions: 320 g/ha, VERPE
In short: as §2

[12] = tested on: Abutilon theophrasti (ABUTH); test: Post-emergence herbicidal action against ABUTH; conditions: 320 g/ha, visual rating about 3 weeks after treatment vs untreated controls (100% = plants have died, 0% = like control plants)
In short: as §2

Viola tricolor (VIOTR) [13] = test: Post-emergence herbicidal action against VIOTR; conditions: 320 g/ha
In short: as §2

[14] = tested on: Polygonum convolvulus (POLCO); test: Post-emergence herbicidal action against POLCO; conditions: dosage 320 g/ha
In short: as §2

[15] = tested on: Pharbitis purpurea (PHBPU); test: Post-emergence herbicidal action against PHBPU; conditions: dosage 320 g/ha
In short: as §2

Post-emergence action against GLXMA in % (Glycine max (GLXMA); 20 g/ha): 0%
Post-emergence action against GLXMA in % (Glycine max (GLXMA); 80 g/ha): 0%
Post-emergence action against ORYSA in % (Oryza sativa (ORYSA) [5]; 20 g/ha, effect vs untreated controls): 0%
Post-emergence action against ORYSA in % (Oryza sativa (ORYSA) [5]; 80 g/ha, effect in comparison to untreated controls): 0%
Post-emergence action against TRZAS in % ([6]; 20 g/ha): 0%
Post-emergence action against TRZAS in % ([6]; 80 g/ha): 0%
Post-emergence action against ZEAMX in % (crop plant compatibility) (Zea mays (ZEAMX) [7]): 0%
Post-emergence action against ZEAMX in % (Zea mays (ZEAMX) [7]): 0%
Pre-emergence action against ORYSA in % (Oryza sativa (ORYSA) [8]; 80 g/ha): 0%
Pre-emergence action against ORYSA in % (Oryza sativa (ORYSA) [8]; 320 g/ha): 0%
Pre-emergence action against TRZAS in % [9]: 20%
Pre-emergence action against ZEAMX in % (Zea mays (ZEAMX) [10]; 80 g/ha): 10%
Pre-emergence action against ZEAMX in % (Zea mays (ZEAMX) [10]; 320 g/ha): 20%
SMILES: COC(=O)CN(C)C(=O)COc1nn(-c2ccccn2)c(-c2ccc(F)nc2)c1Br [Example I-114]
Pre-emergence action against DIGSA in % [1]: 90%
Post-emergence action against ALOMY in % [2]: 90%
Post-emergence action against SETVI in % (Setaria viridis (SETVI)): 80%
Pre-emergence action against VIOTR in % (Viola tricolor (VIOTR) [3]; 320 g/ha, Viola tricolor): 90%
Pre-emergence action against VIOTR in % (Viola tricolor (VIOTR) [3]; dosage 80 g/ha): 80%
Pre-emergence action against ALOMY [4]: 100%

Post-emergence action against GLXMA in % (Glycine max (GLXMA); 20 g/ha): 0%
Post-emergence action against TRZAS in % ([6]; 20 g/ha): 0%
Post-emergence action against TRZAS in % ([6]; 80 g/ha): 0%
Post-emergence action against ZEAMX in % (crop plant compatibility) (Zea mays (ZEAMX) [7]): 0%
Post-emergence action against ZEAMX in % (Zea mays (ZEAMX) [7]): 0%
SMILES: COC(=O)CCOC(=O)COc1nn(-c2ccccn2)c(-c2ccc(F)nc2)c1C1CC1(F)F (centres unmarked) [Example I-261]
Post-emergence action against VERPE in % [11]: 80%
Post-emergence action against ABUTH in % [12]: 80%
Post-emergence action against VIOTR in % (Viola tricolor (VIOTR) [13]): 80%
Post-emergence action against POLCO in % [14]: 80%
Post-emergence action against PHBPU in % [15]: 80%
